We go through 15 compounds from patent publication US20040142979A1, “Heteroarylsulfonylmethyl hydroxamic acids and amides and their use as protease inhibitors” (priority 2002, published 2004).

Some results are limits rather than exact numbers.

Common to all, as to type: biochemical
One experiment addresses T1, Human recombinant MMP-1 (Homo sapiens, UniProt P03956).
T1 construct: made in house; host or cells: MMP-1-transfected HT-1080 cells (spent media)
T1 sequence (P03956 100-469): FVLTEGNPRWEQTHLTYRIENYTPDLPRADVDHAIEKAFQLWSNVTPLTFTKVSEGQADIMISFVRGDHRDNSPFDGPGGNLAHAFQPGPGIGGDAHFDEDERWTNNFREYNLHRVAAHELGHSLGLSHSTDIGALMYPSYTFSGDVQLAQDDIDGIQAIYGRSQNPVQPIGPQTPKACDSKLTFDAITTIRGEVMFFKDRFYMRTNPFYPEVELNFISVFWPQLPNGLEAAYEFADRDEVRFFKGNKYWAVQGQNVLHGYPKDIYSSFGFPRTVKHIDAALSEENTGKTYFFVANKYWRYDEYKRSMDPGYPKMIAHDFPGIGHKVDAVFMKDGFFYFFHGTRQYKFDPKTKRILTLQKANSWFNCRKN
As to the kind of experiment: In vitro MMP inhibition analysis (fluorogenic peptide substrate), MMP-1. The note with it: human recombinant enzyme; 4 μM substrate (A); apparent Ki without substrate correction. How it is done: (§1) Several compounds and salts were analyzed in an in vitro assay to determine their ability to inhibit the MMP cleavage of peptide substrates. Inhibition constant (Ki) were calculated from the assayed compound-MMP interactions.
(§2) Human recombinant MMP-1, MMP-2, MMP-9, MMP-13, and MMP-14 were used in this assay. All enzymes were prepared in Assignee's laboratories following usual laboratory procedures. Protocols for the preparation and use of these enzymes are available in the scientific literature. See, e.g., Enzyme Nomenclature (Academic Press, San Diego, Calif., 1992) (and the citations therein). See also, Freije et al., J. Biol. Chem., 269(24), 16766-16773 (1994).
The MMP-1 proenzyme was purified from the spent media of MMP-1-transfected HT-1080 cells provided by Dr. Harold Welgus of Washington University (St. Louis, Mo.). The protein was purified on a zinc chelating column.
(§3) All MMPs were activated using 4-aminophenylmercuric acetate (“APMA”, Sigma Chemical, St. Louis, Mo.) or trypsin. MMP-9 also was activated using human recombinant MMP-3 (purified in Assignee's laboratory following standard cloning and purification techniques).
(§4) The following fluorogenic, methoxycoumarin-containing polypeptide substrate (A) was used in the MMP inhibition assays:
(§5) MCA-ArgProLeuGlyLeuDpaAlaArgGluArgNH2 (A)
(§6) “MCA” is 7-methoxycoumarin-4-yl acetyl. Substrate (A) was prepared Assignee's laboratory. In the absence of MMP inhibitory activity, the substrate is cleaved at the Gly-Leu peptide bond. This cleavage separates the highly fluorogenic peptide from the 2,4-dinitrophenyl quencher, thus resulting in increase of fluorescent intensity.
(§7) The stock solutions of the assayed compounds and salts were prepared in 1% dimethyl sulfoxide (DMSO). These stock solutions were diluted in Buffer A (100 mM Tris-HCl, 100 mM NaCl, 10 mM CaCl2, 0.05% polyoxyethylene 23 lauryl ether, pH 7.5) to obtain solutions with different compound concentrations, i.e., assay solutions with different concentrations of the assayed MMP inhibitory compound. The experiment controls contained the same amount of Buffer A/DMSO as the assayed sample, but contained none of the tested compound or salt.
(§8) The assays from which the Ki determinations were made were performed as follows. The assayed compound samples were incubated in separate wells of untreated white polystyrene plates (Nunc Nalgene International, Rochester, N.Y.), and analyzed on a Tecan SpectraFlour Plus plate reader. The excitation wavelength was 330 nm, and the emission wavelength -420 nm. All samples (assayed compounds and controls) were incubated in separate plate wells at room temperature for 1 hr in the presence of 4 μM of MMP substrate (A). In the absence of MMP inhibitory activity, substrate (A) was cleaved at the Gly-Leu bond resulting in an increase of relative fluorescence. Inhibition was observed as a reduced rate of this increase in relative fluorescence. […] This protocol is a modification of method by Knight et al., FEBS Lett., 296(3), 263-266 (1992). Apparent inhibitory constants were determined by non-linear regression of reaction velocity as a function of inhibitor and enzyme concentration using Morrison's equation, as described by Kuzmic, P., et al., Anal. Biochem., 286(1):45-50 (2000). Modifications were made in the non-linear regression method to allow a common control reaction rate and effective enzyme concentration to be shared between all dose-response relationships on a given assay plate. Since the substrate concentration was chosen to be at or below the Km, the apparent Ki's from this analysis were reported as Ki's without correction for the influence of substrate.
(§9) The above protocols were used to determine MMP inhibition Ki constants for the compounds in Examples 1, 2, and 4-42 above. All Ki values in Table 3 are given in nM units.

For another experiment, the target named is T2, Human recombinant MMP-2 (Homo sapiens, UniProt P08253).
T2 construct: made in house; host or cells: MMP-2-transfected p2AHT2 cells
T2 sequence (P08253 110-660): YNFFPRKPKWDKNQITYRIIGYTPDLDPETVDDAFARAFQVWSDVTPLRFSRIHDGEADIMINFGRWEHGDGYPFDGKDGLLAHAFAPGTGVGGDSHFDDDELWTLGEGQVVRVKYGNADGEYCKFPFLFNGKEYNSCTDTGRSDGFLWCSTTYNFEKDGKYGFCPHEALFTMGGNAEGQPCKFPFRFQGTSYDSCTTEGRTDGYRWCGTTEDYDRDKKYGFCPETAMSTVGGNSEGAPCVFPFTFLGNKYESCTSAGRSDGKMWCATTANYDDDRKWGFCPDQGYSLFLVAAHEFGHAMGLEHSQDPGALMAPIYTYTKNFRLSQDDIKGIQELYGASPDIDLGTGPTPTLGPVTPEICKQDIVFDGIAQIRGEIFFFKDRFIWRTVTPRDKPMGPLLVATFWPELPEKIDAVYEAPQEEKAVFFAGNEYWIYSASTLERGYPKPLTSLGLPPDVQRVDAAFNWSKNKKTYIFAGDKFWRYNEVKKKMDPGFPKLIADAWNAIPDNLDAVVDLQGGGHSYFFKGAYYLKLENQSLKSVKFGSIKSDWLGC
The experiment in a line: In vitro MMP inhibition analysis (fluorogenic peptide substrate), MMP-2. The note with it: human recombinant enzyme; 4 μM substrate (A); apparent Ki without substrate correction. Here is the method:
as §1, §2
The MMP-2 proenzyme was purified by gelatin Sepharose chromatography from MMP-2- transfected p2AHT2 cells provided by Dr. Gregory Goldberg of Washington University (St. Louis, Mo.).
as §3, §4, §5, §6, §7, §8, §9

Another experiment concerns the target T3, Human recombinant MMP-14 (Homo sapiens, UniProt P50281).
T3 construct: The catalytic domain enzyme was expressed in E. Coli inclusion bodies; made in house
As to the kind of experiment: In vitro MMP inhibition analysis (fluorogenic peptide substrate), MMP-14. The note with it: human recombinant catalytic domain; 4 μM substrate (A); apparent Ki without substrate correction. Here is the method:
as §1, §2
The MMP-14 full length cDNA was provided by Dr. Gregory Goldberg of Washington University (St. Louis, Mo.). The catalytic domain enzyme was expressed in E. Coli inclusion bodies, solubilized in urea, purified on a preparative […] reverse phase HPLC column, and then refolded in the presence of zinc acetate and purified for use.
as §3, §4, §5, §6, §7, §8, §9

With `O=C(NO)C1(S(=O)(=O)c2ccc(-c3ccc(CCC(F)(F)F)cc3)nc2)CCOCC1` [Example 68], the results for the Ki at Human recombinant MMP-1, at Human recombinant MMP-2 and on Human recombinant MMP-14 were more than 10 µM, 0.000665 µM and 2.45 µM, respectively.
With `O=C(NO)C1(S(=O)(=O)c2ccc(-c3ccc(CCC(F)(F)C(F)(F)F)cc3)nc2)CCOCC1` [Example 69], the Ki was more than 10 µM at Human recombinant MMP-1, 0.000766 µM at Human recombinant MMP-2 and 5.07 µM at Human recombinant MMP-14.
As for `CCCCc1ccc(C(=O)C2CCN(c3ccc(S(=O)(=O)C4(C(=O)NO)CCOCC4)cn3)CC2)s1` [Example 70], the Ki on Human recombinant MMP-1 is more than 10 µM; on Human recombinant MMP-2 it was 1.84 µM; on Human recombinant MMP-14, more than 10 µM.
Regarding `CC(C)CN(C)C(=O)Cc1ccc(-c2ccc(S(=O)(=O)C3(C(=O)NO)CCOCC3)cn2)cc1` [Example 71], the Ki is more than 10 µM at Human recombinant MMP-1, 0.553 µM at Human recombinant MMP-2 and more than 10 µM on Human recombinant MMP-14.
In the case of `O=C(Cc1ccc(-c2ccc(S(=O)(=O)C3(C(=O)NO)CCOCC3)cn2)cc1)N1CCCCC1` [Example 72], the values for the Ki on Human recombinant MMP-1, on Human recombinant MMP-2 and on Human recombinant MMP-14 were more than 10 µM, 0.305 µM and more than 10 µM, respectively.
Take `CCCCNC(=O)Cc1ccc(-c2ccc(S(=O)(=O)C3(C(=O)NO)CCOCC3)cn2)cc1` [Example 73]: the Ki is more than 10 µM at Human recombinant MMP-1, 0.0918 µM on Human recombinant MMP-2 and more than 10 µM on Human recombinant MMP-14.
As for `CCCCN(C)C(=O)Cc1ccc(-c2ccc(S(=O)(=O)C3(C(=O)NO)CCOCC3)cn2)cc1` [Example 74], the figures for the Ki at Human recombinant MMP-1, at Human recombinant MMP-2 and at Human recombinant MMP-14 were more than 10 µM, 0.387 µM and more than 10 µM, respectively.
In the case of `CN(C(=O)Cc1ccc(-c2ccc(S(=O)(=O)C3(C(=O)NO)CCOCC3)cn2)cc1)c1ccc(OC(F)(F)F)cc1` [Example 75], the Ki at Human recombinant MMP-1 is more than 10 µM; on Human recombinant MMP-2, 0.000218 µM; on Human recombinant MMP-14, more than 10 µM.
Turning to `CCCCNC(=O)c1ccc(-c2ccc(S(=O)(=O)C3(C(=O)NO)CCOCC3)cn2)cc1` [Example 76], the Ki was 4.2 µM on Human recombinant MMP-1, 0.0263 µM at Human recombinant MMP-2 and more than 10 µM on Human recombinant MMP-14.
Regarding `CN(C(=O)c1ccc(-c2ccc(S(=O)(=O)C3(C(=O)NO)CCOCC3)cn2)cc1)c1ccccc1` [Example 78], the Ki at Human recombinant MMP-1 is more than 10 µM; on Human recombinant MMP-2, 0.895 µM; on Human recombinant MMP-14, more than 10 µM.
In the case of `CCN(CC)C(=O)c1ccc(-c2ccc(S(=O)(=O)C3(C(=O)NO)CCOCC3)cn2)cc1` [Example 79], the Ki is more than 10 µM at Human recombinant MMP-1, 8.2 µM at Human recombinant MMP-2 and more than 10 µM at Human recombinant MMP-14.
As to `CN(C(=O)c1ccc(-c2ccc(S(=O)(=O)C3(C(=O)NO)CCOCC3)cn2)cc1)c1ccc(OC(F)(F)F)cc1` [Example 81], the values for the Ki on Human recombinant MMP-1, at Human recombinant MMP-2 and on Human recombinant MMP-14 were more than 10 µM, 2.06 µM and more than 10 µM, respectively.
For `CC(C)CN(C)C(=O)c1ccc(-c2ccc(S(=O)(=O)C3(C(=O)NO)CCOCC3)cn2)cc1` [Example 82], the Ki at Human recombinant MMP-1 was more than 10 µM; at Human recombinant MMP-2, 0.668 µM; at Human recombinant MMP-14, more than 10 µM.
For the compound `O=C(NO)C1(S(=O)(=O)c2ccc3c(c2)sc2nc(-c4ccccc4)cn23)CCOCC1` [Example 83], the Ki is more than 10 µM on Human recombinant MMP-1, 0.0466 µM on Human recombinant MMP-2 and 3.15 µM at Human recombinant MMP-14.
Regarding `O=C(NO)C1(S(=O)(=O)c2ccc(-c3ccc(OC(F)(F)F)cc3)nc2)CCOCC1` [Example 84], the Ki at Human recombinant MMP-1 was 4.48 µM; on Human recombinant MMP-2, 0.000819 µM; on Human recombinant MMP-14, 0.671 µM.
